The source of these data is PubChem BioAssay AID1620 (Sanford-Burnham Center for Chemical Genomics, 2009).

In the series the test system is HeLa, 35S-Met/Cys protein incorporation toxicity, 3 h. The series can be described thus: HeLa cytotoxicity by protein synthesis, late-stage follow-up, cytotoxicity control for PMI inhibitor project, HeLa cells (AID 1620).

Molecules are shown by their SMILES. Calls of active or inactive are those of the source.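 How the source made its calls: active means toxicity graded low, moderate or high, meaning less radioactive sulfur built into protein than in solvent-only controls; inactive means the rest.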

As to `O=c1c2cc(F)ccc2sn1-c1ccccc1`, the outcome was “active; moderate toxicity”.

As to `Clc1ccc(N=c2ssnc2Cl)cc1`, the outcome was “active; highly toxic”. With `S=c1nc(-c2ccccc2Br)[nH][nH]1` the entry was “inactive; no toxicity”; with `O=c1c2ccc(F)cc2sn1-c1cc(Cl)ccc1Cl`, “active; highly toxic”; with `COc1cc(N=c2ssnc2Cl)cc(OC)c1OC`, “inactive; no toxicity”.

For `Cc1ccc(N=c2ssnc2Cl)cc1[N+](=O)[O-]`, the outcome was “active; moderate toxicity”.

For the compound `S=c1nc(-c2cccc(Br)c2)[nH][nH]1`, the outcome was “inactive; no toxicity”. With `Cc1ccc(N=c2ssnc2Cl)nc1` the entry was “active; highly toxic”; with `O=[N+]([O-])c1ccc(N=c2ssnc2Cl)c([N+](=O)[O-])c1`, “inactive; no toxicity”; with `CN(C)c1cccc(N=c2ssnc2Cl)c1`, “active; highly toxic”. With `OCc1ccccc1N=c1ssnc1Cl` the entry was “inactive; no toxicity”; with `S=c1nc(-c2cccc(Cl)c2)[nH][nH]1`, “inactive; no toxicity”. As for `O=c1c2ccccc2sn1-c1cc(S(=O)(=O)N2CCOCC2)ccc1N1CCCC1`, the entry is “active; moderate toxicity”. For the compound `COc1cc(N=c2ssnc2Cl)cc(OC)c1`, the outcome was “inactive; no toxicity”. As for `O=c1c2ccccc2sn1-c1cc(S(=O)(=O)N2CCOCC2)ccc1N1CCOCC1`, the entry is “active; moderate toxicity”. As for `Cc1cccc(-n2sc3cc(F)ccc3c2=O)c1C`, the entry is “active; moderate toxicity”; as for `O=c1c2c([N+](=O)[O-])cc([N+](=O)[O-])cc2sn1-c1ccc(F)c(Cl)c1`, “inactive; no toxicity”; as for `COc1ccc2c(=O)n(C3CCCC3)sc2c1`, “inactive; no toxicity”. With `Cc1ccc(C)c(N2Cc3ccccc3C2=O)c1` the entry was “active; low toxicity”; with `O=C(NCc1ccccc1)c1cccc(-n2sc3ccccc3c2=O)c1`, “inactive; no toxicity”; with `O=c1c2ccccc2sn1-c1ccc(Cl)cc1`, “active; highly toxic”. Turning to `Clc1ccc(Nc2ccccc2N=c2ssnc2Cl)cc1`, the outcome is “active; highly toxic”. As for `O=c1c2c([N+](=O)[O-])cc([N+](=O)[O-])cc2sn1-c1ccccc1F`, the entry is “active; low toxicity”; as for `Cc1ccc(C)c(-n2sc3ccc(F)cc3c2=O)c1`, “active; moderate toxicity”. `O=c1c2ccccc2sn1-c1nccs1`: the outcome is “inactive; no toxicity”. As for `CCOc1ccc(-c2nc(=S)[nH][nH]2)cc1`, the entry is “inactive; no toxicity”; as for `Clc1cccc(N=c2ssnc2Cl)c1`, “active; low toxicity”.

Take `O=c1c2ccccc2sn1-c1cccc(S(=O)(=O)Nc2ccc(Cl)cc2)c1`: the outcome is “active; moderate toxicity”.

For the compound `O=c1c2ccccc2sn1-c1cccc(C(F)(F)F)c1`, the outcome was “active; highly toxic”. As for `COc1ccc(OC)c(N=c2ssnc2Cl)c1`, the entry is “inactive; no toxicity”; as for `O=[N+]([O-])c1ccc(N=c2ssnc2Cl)c2ccccc12`, “active; low toxicity”. As for `O=c1c2ccc(O)cc2sn1C1CCCC1`, the entry is “inactive; no toxicity”. With `Cc1ccc(C=Nn2c(-c3ccncc3)n[nH]c2=S)cc1` the entry was “inactive; no toxicity”. In the case of `O=C(O)CCn1cc(C=C2C(=O)NC(=S)NC2=O)c(-c2cccc(Br)c2)n1`, the outcome is “inactive; no toxicity”. With `Cc1cccc(-n2sc3ccccc3c2=O)c1` the entry was “active; moderate toxicity”; with `Cc1ccc(C)c(-n2sc3ccccc3c2=O)c1`, “active; moderate toxicity”; with `Cc1ccc(C)c(-n2[nH]c3ccccc3c2=O)c1`, “inactive; no toxicity”. As for `Cc1ccc(-n2sc3ccccc3c2=O)cc1S(=O)(=O)N1CCCCC1`, the entry is “active; moderate toxicity”; as for `Cc1ccnc(-n2sc3ccccc3c2=O)n1`, “inactive; no toxicity”. With `CCc1cc(CC)c(N=c2ssnc2Cl)c(CC)c1` the entry was “active; highly toxic”. Regarding `O=C(O)c1cccc(-n2sc3ccccc3c2=O)c1`, the outcome is “active; moderate toxicity”. Take `COc1ccc(N=c2ssnc2Cl)cc1OC`: the outcome was “active; highly toxic”.

`N#CC1=C2SCN(Cc3ccccc3)CN2C(=O)CC1c1ccc2c(c1)OCO2` (stereo not drawn): the outcome is “inactive; no toxicity”. As for `N#Cc1ccc(N=c2ssnc2Cl)cc1`, the entry is “inactive; no toxicity”; as for `Cc1[nH]n(-c2ccccc2)c(=S)c1C=Nc1cccc([N+](=O)[O-])c1`, “inactive; no toxicity”.

As for `O=c1c2ccccc2sn1-c1ccccc1`, the outcome is “inactive; no toxicity”.

For the compound `COc1ccc(-c2nc(=S)[nH][nH]2)cc1OC`, the outcome is “inactive; no toxicity”. With `Cc1ccc(C)n1-c1nc(=S)[nH][nH]1` the entry was “inactive; no toxicity”. With `Cc1ccc(N=c2ssnc2Cl)c([N+](=O)[O-])c1` the entry was “active; low toxicity”; with `CCSc1n[nH]c(=S)s1`, “inactive; no toxicity”.

As to `Cc1c(Cl)cccc1-n1sc2cc([N+](=O)[O-])cc(OCC(F)(F)F)c2c1=O`, the outcome is “active; low toxicity”. Regarding `COc1cccc(-n2sc3ccccc3c2=O)c1`, the outcome was “active; low toxicity”.

In the case of `FC(F)(F)c1ccc(N=c2ssnc2Cl)cc1`, the outcome is “active; moderate toxicity”. In the case of `COc1ccc(-c2nc(=S)[nH][nH]2)cc1`, the outcome was “inactive; no toxicity”. As for `O=c1c2ccccc2sn1-c1cccc(I)c1`, the entry is “active; highly toxic”; as for `CN(C)S(=O)(=O)c1cccc(-n2sc3ccccc3c2=O)c1`, “active; moderate toxicity”. With `O=c1c2ccccc2sn1-c1ccc(F)cc1` the entry was “active; moderate toxicity”; with `COc1cc(N=c2ssnc2Cl)c(OC)cc1Cl`, “active; low toxicity”. As for `O=C1c2ccccc2SC1c1ccccc1` (stereo not drawn), the entry is “active; low toxicity”; as for `Clc1nssc1=Nc1ccc(Br)cc1`, “active; high toxicity”; as for `COc1cc([N+](=O)[O-])ccc1N=c1ssnc1Cl`, “active; moderate toxicity”.

For the compound `Clc1nssc1=Nc1ccccc1`, the outcome was “inactive; no toxicity”.

Turning to `Clc1nss/c1=N\c1nccs1`, the outcome was “inactive; no toxicity”. As for `CN(C)c1cccc(-n2sc3ccccc3c2=O)c1`, the entry is “inactive; no toxicity”; as for `Nc1ccccc1N=c1ssnc1Cl`, “inactive; no toxicity”. With `Clc1ccc(N=c2ssnc2Cl)cc1Cl` the entry was “active; highly toxic”. As for `S=c1nc(C2COc3ccccc3O2)[nH][nH]1` (stereo not drawn), the entry is “inactive; no toxicity”; as for `Oc1ccc(N=c2ssnc2Cl)cc1`, “inactive; no toxicity”; as for `O=C(O)c1ccccc1NS(=O)(=O)c1cccc(-n2sc3ccccc3c2=O)c1`, “active; high toxicity”.

For `Clc1nss/c1=N\c1nncs1`, the outcome was “active; moderate toxicity”. With `Cc1ccc(C)c(-n2sc3cc(F)ccc3c2=O)c1` the entry was “active; high toxicity”; with `O=c1c2ccccc2sn1-c1ccc(Cl)c(S(=O)(=O)N2CCOCC2)c1`, “active; moderate toxicity”.

On to `O=c1c2ccccc2sn1-c1cccc(Cl)c1`, for which the outcome is “active; highly toxic”. As for `CC(C)(C)c1ccc(N=c2ssnc2Cl)cc1`, the entry is “active; moderate toxicity”; as for `Clc1nss/c1=N\c1nc2ccccc2s1`, “active; highly toxic”. As for `Cc1ccc(N=c2ssnc2Cl)cc1C`, the entry is “active; moderate toxicity”; as for `COC(=O)c1cccc(-n2sc3ccccc3c2=O)c1`, “active; moderate toxicity”.

In the case of `Cc1cccc(N=c2ssnc2Cl)c1`, the outcome was “active; moderate toxicity”. With `O=c1c2ccccc2sn1-c1ccc2ccccc2c1` the entry was “active; high toxicity”. Regarding `Cc1ccc(N=c2ssnc2Cl)cc1`, the outcome was “inactive; no toxicity”. As for `COc1cc(-c2nc(=S)[nH][nH]2)cc(OC)c1OC`, the entry is “inactive; no toxicity”; as for `O=c1c2c([N+](=O)[O-])cc([N+](=O)[O-])cc2sn1-c1ccc(F)cc1`, “active; low toxicity”; as for `CN(C)c1ccc(N=c2ssnc2Cl)cc1`, “active; moderate toxicity”.
